Data from patent publication US20080072640A1, “Insecticidal Fertilizer Solids and Method of Preparation” (priority 2006, published 2008).

Experiment: Solubility of imidacloprid in organic solvents
Assay type: physicochemical
Text: U.S. Pat. No. 5,783,203 mentions acetone as a solvent for imidacloprid. […] Using a 6 wt % solution imidacloprid in acetone would mean applying 1.67 wt % of the solution on the fertilizer based on the combined weight of the fertilizer and the solution to achieve a product with 0.10 wt % imidacloprid. This would be very difficult to achieve a dry product. Fertilizer products with 0.2 wt % and 0.5 wt % imidacloprid would require 3.33 wt % and 8.33 wt % respectively of the imidacloprid solution absorbed onto the fertilizer; concentrations which are not likely feasible in acetone. In addition, acetone is highly flammable which would make processing very difficult and expensive.
Preferably, the solvent system for use in the present invention consists essentially of either N-methyl-2-pyrrolidone or DMSO. […] Amine-stabilized or caustic-stabilized N-vinyl-pyrrolidone can form a solution with imidacloprid in an amount of about 15 wt % at 25° C. […] The solvent system can consist essentially of N-methyl-2-pyrrolidone, DMSO or a mixture of either N-methyl-2-pyrrolidone or DMSO with one or more co-solvents.
An imidacloprid solution was prepared by dissolving imidacloprid in dimethyl sulfoxide (DMSO). […] The resulting solution can be sprayed onto a particulate fertilizer in an amount to provide a dry particulate composition containing about 0.1 wt % imidacloprid.
The solubility of imidacloprid TGAI in N-methyl-2-pyrrolidone (NMP) was investigated. NMP has a favorable flash point of 187° F. (closed cup), mild odor, and is slow to volatilize, which are all very favorable properties. […] A 30 wt % solution can easily be prepared to spray onto fertilizer solids. Spraying a 0.50 wt % solution on fertilizer would achieve 0.15 wt % active ingredient. Spraying a 0.67 wt % solution and 1.67% wt % solution would achieve 0.20 wt % and 0.50 wt % active ingredient, respectively. These are highly plausible concentrations for use.

SMILES: O=[N+]([O-])NC1=NCCN1Cc1ccc(Cl)nc1 [imidacloprid, 1-((6-chloro-3-pyridinyl)methyl)-N-nitro-2-imidazolidinimine]
- solubility of imidacloprid in NMP (solvent N-methyl-2-pyrrolidone (NMP), room temperature): ~35 wt %
- solubility of imidacloprid in N-methyl-2-pyrrolidone (solvent N-methyl-2-pyrrolidone, 25° C.): about 32 wt %
- solubility of imidacloprid in acetone (solvent acetone): less than 7 wt %
- solubility of imidacloprid in N-vinyl-pyrrolidone (solvent amine-stabilized or caustic-stabilized N-vinyl-pyrrolidone, 25° C.): about 15 wt %
- solubility of imidacloprid in DMSO (solvent dimethyl sulfoxide, room temperature of about 23° C.): about 32 wt %
